We go through 21 molecules from ChEMBL document CHEMBL1152883, “1-Amido-1-phenyl-3-piperidinylbutanes--CCR5 antagonists for the treatment of HIV: part 2” (Bioorg Med Chem Lett, 2009).

Structures are written as SMILES. A value given as a limit tells only on which side of the number the result lay.

Data set [1] is described as follows: Lipophilicity, log D at pH 7.4. Type of data set: physicochemical. The settings on record: buffer.
Data set [2] in a line: (§1) Metabolic stability in human liver microsomes assessed as clearance measured per mg of protein. Format: ADME, Microsome. As to conditions: liver microsomes. Background: Liver microsomes are vesicles of endoplasmic reticulum, rich in cytochrome P450 enzymes.
Data set [3] in a line: Apparent permeability from apical to basolateral side of human Caco-2 cells. As to conditions: read-out: permeability. Type of data set: ADME, cell-based.
Data set [4] in a line: Apparent permeability from basolateral to apical side of human Caco-2 cells. Format: ADME, cell-based. As to conditions: read-out: permeability. In general terms: Caco-2 cells form a polarised layer with tight junctions and transporters.
For data set [5], the system named is Human immunodeficiency virus 1. Description: Antiviral activity against HIV1 BAL assessed as inhibition of viral replication. Format: functional. The settings on record: Human immunodeficiency virus 1, BAL.
The nature of data set [6]: Clearance in iv dosed Sprague-Dawley rat. Type of data set: ADME, organism-based. The settings on record: in vivo.
Data set [7] can be described thus: Volume of distribution in iv dosed Sprague-Dawley rat. Type of data set: ADME, organism-based. The settings on record: in vivo.
Data set [8] is described as follows: Half life in iv dosed Sprague-Dawley rat. Type of data set: ADME, organism-based. The settings on record: in vivo.
Data set [9] in a line: Oral bioavailability in Sprague-Dawley rat. Format: ADME, organism-based. As to conditions: in vivo.
Data set [10] concerns Liver microsomes. The data set is described as §1. Format: ADME, Microsome. The settings on record: microsomes.

The term logD denotes the decadic logarithm of the distribution of all forms, ionised or not, between an organic phase and buffer at a given pH. The term microsomal CLint denotes the rate of metabolic loss divided by the concentration. Regarding `Cc1nc(C(C)C)n([C@@H]2C[C@H]3CC[C@@H](C2)N3CC[C@H](NC(=O)C2CCC(F)(F)CC2)c2ccccc2)n1`, the logD in data set [1] (read-out: logD) stood at 2.7. Besides, in data set [2], the intrinsic clearance (microsomal CLint) stood at 6 µL/min/mg. In addition, the Papp A→B in [3] came to 11 ×10⁻⁶ cm/s. Also, the Papp B→A in data set [4] stood at 26 ×10⁻⁶ cm/s.

As a reminder, the IC90 is the concentration needed for an effect of 90%. As a reminder, the clearance is the rate of elimination divided by the concentration. High values mean efficient removal, low ones inefficient removal. Broadly, the Vd is a proportionality between amount in the body and measured concentration, not a real space. One may read the half-life as the time needed for the level to fall by half in the phase considered. A word on the bioavailability: it is the share of a dose that reaches the circulation, judged against a reference dose that is usually intravenous. `Cc1nnc(C(C)C)n1C1CCN([C@H](C)C[C@H](NC(=O)C2CC(F)(F)C2)c2ccccc2)CC1`: in data set [1] (read-out: logD), the logD came to 2.2. Moreover, the intrinsic clearance (microsomal CLint) in data set [2] came to 12 µL/min/mg. In addition, the 90% effect concentration (IC90) in data set [5] came to 1.8 nM. In data set [6], this molecule showed a clearance of 92 mL/min/kg. The volume of distribution (Vd) in data set [7] was determined as 10 L/kg. Also, in data set [8], the half-life is 1.3 h. The bioavailability in data set [9] was determined as 6%.

Turning to `Cc1nnc(C(C)C)n1C1CCN([C@@H](C)C[C@H](NC(=O)C2CCC(F)(F)CC2)c2ccccc2)CC1`, in [1] (read-out: logD), the pH-dependent lipophilicity (logD) is 2.2. Besides, in data set [2], the intrinsic metabolic clearance (microsomal CLint) was less than 7 µL/min/mg.

As to `Cc1nnc(C(C)C)n1C1CCN(C(C)C[C@H](NC(=O)C2CC2)c2ccccc2)CC1` (mixture of isomers), the intrinsic clearance (microsomal CLint) in data set [2] is less than 8 µL/min/mg.

Regarding `CC(=O)N[C@@H](CC(C)N1CCC(n2c(C)nnc2C(C)C)CC1)c1ccccc1` (mixture of isomers), in [2], the microsomal CLint was less than 8 µL/min/mg.

In the case of `Cc1nnc(C(C)C)n1C1CCN(C(C)C[C@H](NC(=O)CC(F)(F)F)c2ccccc2)CC1` (mixture of isomers), in [2], the microsomal CLint was 11.4 µL/min/mg.

As for `Cc1nnc(C(C)C)n1C1CCN(C(C)C[C@H](NC(=O)COCC(F)(F)F)c2ccccc2)CC1` (mixture of isomers), in data set [2], the microsomal CLint was found to be 61.6 µL/min/mg.

`Cc1nnc(C(C)C)n1C1CCN(C(C)C[C@H](NC(=O)C2CCCCC2)c2ccccc2)CC1` (mixture of isomers): the pH-dependent lipophilicity (logD) in data set [1] (read-out: logD) turned out to be 2.5. For the same molecule, in data set [2], the intrinsic metabolic clearance (microsomal CLint) was determined as 139 µL/min/mg.

`Cc1nnc(C(C)C)n1C1CCN(C(C)C[C@H](NC(=O)C(C)C)c2ccccc2)CC1` (mixture of isomers): in data set [2], the microsomal CLint is less than 8 µL/min/mg.

Turning to `Cc1nnc(C(C)C)n1C1CCN(C(C)C[C@H](NC(=O)N2CCOCC2)c2ccccc2)CC1` (mixture of isomers), in data set [2], the microsomal CLint was less than 8 µL/min/mg.

For `Cc1nnc(C(C)C)n1C1CCN(C(C)C[C@H](NC(=O)C2CCS(=O)(=O)CC2)c2ccccc2)CC1` (mixture of isomers), in data set [1] (read-out: logD), the logD is 0.5.

Consider `CC(=O)N1CCC(C(=O)N[C@@H](CC(C)N2CCC(n3c(C)nnc3C(C)C)CC2)c2ccccc2)CC1` (mixture of isomers), for which, in [2], the intrinsic clearance (microsomal CLint) is less than 8 µL/min/mg.

In the case of `COC(=O)N[C@@H](CC(C)N1CCC(n2c(C)nnc2C(C)C)CC1)c1ccccc1` (mixture of isomers), the logD in [1] (read-out: logD) was 1.5. The microsomal CLint in data set [2] is less than 7 µL/min/mg.

Regarding `Cc1nnc(C(C)C)n1C1CCN(C(C)C[C@H](NC(=O)C2CCOCC2)c2ccccc2)CC1` (mixture of isomers), the intrinsic metabolic clearance (microsomal CLint) in data set [2] was 10.8 µL/min/mg.

For the molecule `Cc1nnc(C(C)C)n1C1CCN(C(C)C[C@H](NC(=O)CC2CC2)c2ccccc2)CC1` (mixture of isomers), the logD in data set [1] (read-out: logD) came to 1.9.

In data set [1], `Cc1nnc(C(C)C)n1C1CCN(C(C)C[C@H](NC(=O)C2CC(F)(F)C2)c2ccccc2)CC1` (mixture of isomers; form 1) yielded a logD of 2. For the same molecule, the CL in data set [10] was less than 7 µL/min/mg.

For `Cc1nnc(C(C)C)n1C1CCN(C(C)C[C@H](NC(=O)C2CCC(F)(F)CC2)c2ccccc2)CC1` (mixture of isomers; form 1), the logD in [1] (read-out: logD) came out at 2. In addition, the CL in [10] is 19 µL/min/mg.

Take `Cc1nnc(C(C)C)n1C1CCN(C(C)C[C@H](NC(=O)C2CCC(F)(F)CC2)c2ccccc2)CC1.Cl` (mixture of isomers; form 2): the log distribution coefficient (logD) in [1] is 2. The intrinsic clearance (microsomal CLint) in [2] stood at 16 µL/min/mg.

`Cc1nnc(C(C)C)n1C1CCN(C(C)C[C@H](NC(=O)C2CC(F)(F)C2)c2ccccc2)CC1` (mixture of isomers; form 2): in data set [1] (read-out: logD), the logD amounted to 1.9. Besides, the intrinsic metabolic clearance (microsomal CLint) in data set [2] is less than 7 µL/min/mg.

`Cc1nnc(C(C)C)n1[C@@H]1C[C@H]2CC[C@@H](C1)N2CC[C@H](NC(=O)C1CCC(F)(F)CC1)c1ccccc1` [MARAVIROC]: in [1] (read-out: logD), the logD turned out to be 1.9. Further, the intrinsic metabolic clearance (microsomal CLint) in data set [2] is 20 µL/min/mg. The Papp A→B in data set [3] is 1 ×10⁻⁶ cm/s. In addition, the Papp B→A in data set [4] came to 10 ×10⁻⁶ cm/s. Besides, in data set [6], the clearance was 74 mL/min/kg. In addition, the Vd in data set [7] came out at 6.5 L/kg. The molecule further gave a half-life in [8] of 0.9 h.

Turning to `Cc1nnc(C(C)C)n1[C@H]1C[C@H]2CC[C@@H](C1)N2CC[C@H](NC(=O)C1CCC(F)(F)CC1)c1ccccc1` [MARAVIROC], the IC90 in data set [5] came out at 2.8 nM.
